Measured values published in patent publication US20210332139A1, “MODULATION OF LEUKOCYTE ACTIVITY IN TREATMENT OF NEUROINFLAMMATORY DEGENERATIVE DISEASE” (Leuvas Therapeutics, priority 2013, published 2021).
Values joined by “and” are separate entries in the source; they are usually repeats but may differ in a detail not shown here. Equal entries are not always repeated.

Experiments:
[1] = system: LFA-1; assay: LFA-1 affinity state in human neutrophils (conformer-specific antibodies, cytofluorimetry); assay type: cell-based; settings: 20 μM, 10 s, mean fluorescence intensity, ctrl = 1
From the text: Neutrophil arrest is rapidly triggered by chemokines or other chemoattractants and is mediated by the binding of LFA-1 integrin to its vascular ligand ICAM-1. Ligation of specific heterotrimeric GPCRs by chemokines induces integrins to undergo a dramatic transition from a bent low-affinity conformation to extended intermediate- and high-affinity conformations, which leads to opening of the ligand-binding pocket. We hypothesized that Aβ may trigger intermediate and/or high affinity state of LFA-1 integrin and studied the effect of Aβ1-42 oligomers on human LFA-1 affinity using KIM127 and 327A conformer-specific antibodies for intermediate- and high-affinity state respectively.
The cells were stimulated for 10 s with 0.5 μmol/L of CXCL12, 0.1 μM fMLP, 20 μM Aβ1-42, or 20 μM Aβ42-1 under stirring at 37° C. After rapid washing, cells were stained with FITC-conjugated secondary polyclonal antibody and analyzed by cytofluorimetric quantification. Data are mean fluorescence intensity +/−SD from three independent experiments.

[2] = system: human primary PMNs; assay: Static adhesion of human primary PMNs to ICAM-1 with signaling inhibitors; assay type: cell-based; settings: 10 μM Aβ, 1 min; listed as Aβ oligo
Method: As a model system, human primary PMNs were isolated form healthy donors stimulated to very rapid adhesion to purified human ICAM-1, ligand for the β2 integrins LFA-1 and Maci. fMLP (the classical chemoattractant) was the positive control. […] PMNs were treated for 30 min. with different concentrations of inhibitors followed by stimulation for 1 min with 50 nM fMLP or with 10 μM Aβ. The number of adherent cells was quantified by computer-assisted evaluation. Statistical analysis was SD.

Abeta 1-42: soluble oligomeric amyloid-beta 1-42 peptide used as stimulus
327A (high-affinity state of LFA-1) [1]: 3.29 ± 0.44 | KIM127 (intermediate-affinity state of LFA-1) [1]: 2.54 ± 0.12 | Adherent hPMNs to ICAM-1, Aβ oligo, Mean, Control (no inhibitor) [2]: 464.0 and 500.8 and 464.5 and 455.0 and 475.5 and 470.7
